Assays:
[1] = test system: Mouse; test: concentration in plasma after dosing; conditions: 0.25 h; dosed: 2-Hydroxy-4-methoxybenzophenone; 250 mg/kg; oral; Male; B6C3F1
[2] = test system: Mouse; test: concentration in plasma after dosing; conditions: 2 h; dosed: 2-Hydroxy-4-methoxybenzophenone; 50 mg/kg; iv; Female; B6C3F1
[3] = test system: Mouse; test: concentration in plasma after dosing; conditions: 0.25 h; dosed: 2-Hydroxy-4-methoxybenzophenone; 500 mg/kg; oral; Male; B6C3F1
[4] = test system: Mouse; test: concentration in plasma after dosing; conditions: 2 h; dosed: 2-Hydroxy-4-methoxybenzophenone; 50 mg/kg; iv; Male; B6C3F1
[5] = test system: Mouse; test: concentration in plasma after dosing; conditions: 10 min; dosed: 2-Hydroxy-4-methoxybenzophenone; 250 mg/kg; oral; Male; B6C3F1
[6] = test system: Rat; test: concentration in plasma after dosing; conditions: dosed: 2-Hydroxy-4-methoxybenzophenone, 100 mg/kg, oral, Female, F344
[7] = test system: Mouse; test: concentration in plasma after dosing; conditions: 0.25 h; dosed: 2-Hydroxy-4-methoxybenzophenone; 500 mg/kg; oral; Male; B6C3F1; remark: listed apart in the source
[8] = test system: Rat; test: concentration in plasma after dosing; conditions: dosed: Nitrite, 80 mg/kg, oral, Female, F344
[9] = test system: Rat; test: concentration in plasma after dosing; conditions: 5 min; dosed: Nitrite; 40 mg/kg; oral; Female; F344
[10] = test system: Rat; test: concentration in plasma after dosing; conditions: dosed: Nitrite, 20 mg/kg, iv, Male, F344
[11] = test system: Rat; test: concentration in plasma after dosing; conditions: dosed: Nitrite, 80 mg/kg, oral, Female, F344; remark: listed apart in the source
[12] = test system: Rat; test: concentration in plasma after dosing; conditions: 0.5 h; dosed: Nitrite; 20 mg/kg; iv; Male; F344
[13] = test system: Rat; test: concentration in plasma after dosing; conditions: 3 h; dosed: Fluorotelomer alcohol 8+2; 12 mg/kg; oral; Male; Harlan Sprague Dawley
[14] = test system: Rat; test: concentration in kidney after dosing; conditions: 12 h; dosed: Perfluorooctanoic acid; 12 mg/kg; oral; Male; Harlan Sprague Dawley
[15] = test system: Rat; test: concentration in kidney after dosing; conditions: 6 h; dosed: Fluorotelomer alcohol 8+2; 80 mg/kg; oral; Female; Harlan Sprague Dawley
[16] = test system: Rat; test: concentration in liver after dosing; conditions: 12 h; dosed: Perfluorooctanoic acid; 12 mg/kg; oral; Male; Harlan Sprague Dawley
[17] = test system: Rat; test: concentration in liver after dosing; conditions: 1 h; dosed: Fluorotelomer alcohol 8+2; 24 mg/kg; oral; Male; Harlan Sprague Dawley
[18] = test system: Rat; test: concentration in brain after dosing; conditions: 12 h; dosed: Perfluorooctanoic acid; 12 mg/kg; oral; Male; Harlan Sprague Dawley
[19] = test system: Rat; test: concentration in plasma after dosing; conditions: dosed: 678-39-7, 12 mg/kg, iv, Male, F344
[20] = test system: Rat; test: concentration in kidney after dosing; conditions: 6 h; dosed: Fluorotelomer alcohol 8+2; 24 mg/kg; oral; Male; Harlan Sprague Dawley
[21] = test system: Rat; test: concentration in plasma after dosing; conditions: 1.5 h; dosed: Potassium Perfluorobutane Sulfonate; 20 mg/kg; oral; Male; Harlan Sprague Dawley
[22] = test system: Rat; test: concentration in brain after dosing; conditions: 1 h; dosed: Potassium Perfluorobutane Sulfonate; 20 mg/kg; oral; Male; Harlan Sprague Dawley
[23] = test system: Rat; test: concentration in kidney after dosing; conditions: 12 h; dosed: Potassium Perfluorobutane Sulfonate; 20 mg/kg; oral; Male; Harlan Sprague Dawley
[24] = test system: Rat; test: concentration in plasma after dosing; conditions: dosed: Potassium Perfluorobutane Sulfonate, 4 mg/kg, oral, Male, Harlan Sprague Dawley
[25] = test system: Rat; test: concentration in plasma after dosing; conditions: 1 h; dosed: Potassium Perfluorobutane Sulfonate; 4 mg/kg; iv; Male; F344
[26] = test system: Rat; test: concentration in kidney after dosing; conditions: 0.5 h; dosed: Potassium Perfluorobutane Sulfonate; 20 mg/kg; oral; Female; Harlan Sprague Dawley
[27] = test system: Rat; test: concentration in kidney after dosing; conditions: 6 h; dosed: Potassium Perfluorobutane Sulfonate; 20 mg/kg; oral; Female; Harlan Sprague Dawley
[28] = test system: Rat; test: concentration in kidney after dosing; conditions: 1 h; dosed: Potassium Perfluorobutane Sulfonate; 20 mg/kg; oral; Female; Harlan Sprague Dawley
[29] = test system: Rat; test: concentration in plasma after dosing; conditions: 0.25 h; dosed: Potassium Perfluorobutane Sulfonate; 4 mg/kg; iv; Male; F344
[30] = test system: rat; test: concentration in lung after dosing (ugEq/g tissue); conditions: dosed: benzo[a]pyrene, iv, male, Wistar

COc1ccc(C(=O)c2ccccc2)c(O)c1 [2-Hydroxy-4-methoxybenzophenone]
Conditions	concentration in plasma [ng/mL]
[1]	231
[2]	317
[3]	468
[4]	236
[5]	93.1
[7]	395

[6]
Conditions	concentration in plasma [ng/mL]
0.25 h	84.6
4 h	16.2

O=N[O-] [Nitrite]
Conditions	concentration in plasma [ng/mL]
[8], 5 min	6900
[8], 8 h	1800
[10], 0.75 h	4400
[10], 2 min	9000
[11], 6 h	1800
[11], 10 min	24800

Conditions	concentration in plasma [ng/mL]
[9]	9500
[12]	8100

O=C(O)C(F)(F)C(F)(F)C(F)(F)C(F)(F)C(F)(F)C(F)(F)C(F)(F)F [Perfluorooctanoic acid]
Conditions	concentration in brain [ng/g]	concentration in kidney [ng/g]	concentration in liver [ng/g]	concentration in plasma [ng/mL]
[13]	–	–	–	380
[14]	–	26900	–	–
[15]	–	2040	–	–
[16]	–	–	63300	–
[17]	–	–	535	–
[18]	1230	–	–	–
[20]	–	381	–	–

[19]
Conditions	concentration in plasma [ng/mL]
0.5 h	210
9 h	521

O=S(=O)([O-])C(F)(F)C(F)(F)C(F)(F)C(F)(F)F.[K+] [Potassium Perfluorobutane Sulfonate]
Conditions	concentration in brain [ng/g]	concentration in kidney [ng/g]	concentration in plasma [ng/mL]
[21]	–	–	70000
[22]	1030	–	–
[23]	–	3610	–
[25]	–	–	20200
[26]	–	23200	–
[27]	–	587	–
[28]	–	21100	–
[29]	–	–	16400

[24]
Conditions	concentration in plasma [ng/mL]
0.25 h	3220
6 h	9970

c1ccc2c(c1)cc1ccc3cccc4ccc2c1c34 [benzo[a]pyrene]
concentration in lung, [30]
Conditions	2 mg/kg	6 mg/kg	15 mg/kg
0.5 h	1.06	16	25.8
0.75 h	2.68	5.85	13.7
1 h	2.4	2.76	17
1.5 h	1.07	5.3	38.5
2 h	14.7	5.84	37
3 h	0.34	0.4	7.07
4 h	0.04	2.64	22.4
5 h	0.68	12.4	33.2
5 min	5.17	33.9	46
6 h	0.06	6.27	22.6
8 h	9.32	5.09	18.4
10 min	1.31	13.6	26.1
20 min	2.8	17.3	23.4
24 h	–	–	10.2
32 h	–	3.9	15.7

Reference: EPA's CvTdb concentration-time database
